Source: ChEMBL document CHEMBL5579877, “Design and Evaluation of 3-Phenyloxetane Derivative Agonists of the Glucagon-Like Peptide-1 Receptor” (J Med Chem, 2024)
Calls of active or inactive are those of the source. No cut-off for these calls is given here.

What was measured:
Cytochrome P450 3A4 = Cytochrome P450 3A4 (Homo sapiens, UniProt P08684); assay: Inhibition of CYP3A4 in human liver microsomes using testosterone as substrate preincubated for 5 mins followed by NADPH addition and measured after 5 mins by LC-MS/MS analysis; assay type: ADME, Microsome
Sequence of Cytochrome P450 3A4 (P08684 whole entry): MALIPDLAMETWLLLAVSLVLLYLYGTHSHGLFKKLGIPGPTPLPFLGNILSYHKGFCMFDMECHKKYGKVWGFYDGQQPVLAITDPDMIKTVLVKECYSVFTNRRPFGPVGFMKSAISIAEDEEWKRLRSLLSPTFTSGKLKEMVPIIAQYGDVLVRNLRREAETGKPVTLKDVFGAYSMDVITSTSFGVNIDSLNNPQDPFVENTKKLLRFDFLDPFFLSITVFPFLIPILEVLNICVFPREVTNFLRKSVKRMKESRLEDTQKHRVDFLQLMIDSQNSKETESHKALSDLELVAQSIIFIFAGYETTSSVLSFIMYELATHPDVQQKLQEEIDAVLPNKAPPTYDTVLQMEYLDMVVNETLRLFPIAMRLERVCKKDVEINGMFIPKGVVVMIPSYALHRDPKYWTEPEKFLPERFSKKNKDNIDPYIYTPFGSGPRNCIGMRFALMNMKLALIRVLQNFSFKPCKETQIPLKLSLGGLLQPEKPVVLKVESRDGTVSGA

Cytochrome P450 2C19 = Cytochrome P450 2C19 (Homo sapiens, UniProt P33261); assay: Inhibition of CYP2C19 in human liver microsomes using S-mephenytoin as substrate preincubated for 5 mins followed by NADPH addition and measured after 45 mins by LC-MS/MS analysis; assay type: ADME, Microsome
Sequence of Cytochrome P450 2C19 (P33261 whole entry): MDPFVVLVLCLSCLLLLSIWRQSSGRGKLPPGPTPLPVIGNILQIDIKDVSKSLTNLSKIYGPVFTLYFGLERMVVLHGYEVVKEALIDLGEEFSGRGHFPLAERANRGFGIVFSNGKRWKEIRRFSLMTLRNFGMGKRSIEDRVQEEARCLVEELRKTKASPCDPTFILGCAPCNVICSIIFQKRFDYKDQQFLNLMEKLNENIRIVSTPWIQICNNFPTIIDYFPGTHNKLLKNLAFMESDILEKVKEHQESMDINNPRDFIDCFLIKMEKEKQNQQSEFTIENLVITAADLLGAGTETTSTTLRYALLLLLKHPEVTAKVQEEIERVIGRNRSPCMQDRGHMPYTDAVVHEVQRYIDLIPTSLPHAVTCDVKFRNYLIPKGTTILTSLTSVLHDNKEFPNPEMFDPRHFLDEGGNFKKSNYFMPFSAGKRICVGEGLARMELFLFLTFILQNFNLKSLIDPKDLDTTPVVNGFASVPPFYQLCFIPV

[1] = Oral clearance in rat at 5 mg/kg, po by LC-MS/MS analysis; assay type: ADME, organism-based; settings: in vivo
[2] = AUC in ICR mouse at 5 mg/kg, po by LC-MS/MS analysis; assay type: ADME, organism-based; settings: in vivo
[3] = Oral bioavailability in ICR mouse at 5 mg/kg by LC-MS/MS analysis; assay type: ADME, organism-based; settings: in vivo
Cytochrome P450 2D6 = Cytochrome P450 2D6 (Homo sapiens, UniProt P10635); assay: Inhibition of CYP2D6 in human liver microsomes using dextromethorphan as substrate preincubated for 5 mins followed by NADPH addition and measured after 20 mins by LC-MS/MS analysis; assay type: ADME, Microsome
Sequence of Cytochrome P450 2D6 (P10635 whole entry): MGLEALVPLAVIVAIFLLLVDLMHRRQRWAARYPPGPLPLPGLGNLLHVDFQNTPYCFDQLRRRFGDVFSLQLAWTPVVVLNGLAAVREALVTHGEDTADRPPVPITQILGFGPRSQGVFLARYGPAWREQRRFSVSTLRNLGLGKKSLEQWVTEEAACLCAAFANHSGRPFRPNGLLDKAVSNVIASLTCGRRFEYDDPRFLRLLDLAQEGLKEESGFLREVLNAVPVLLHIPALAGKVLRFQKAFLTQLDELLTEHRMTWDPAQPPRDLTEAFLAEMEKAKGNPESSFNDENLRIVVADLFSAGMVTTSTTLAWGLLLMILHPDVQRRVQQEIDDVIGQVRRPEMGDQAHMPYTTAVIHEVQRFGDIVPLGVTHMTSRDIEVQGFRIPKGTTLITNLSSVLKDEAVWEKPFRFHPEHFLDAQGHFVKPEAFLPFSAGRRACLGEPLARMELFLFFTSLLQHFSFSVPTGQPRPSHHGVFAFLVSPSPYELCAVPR

[4] = Half-life in ICR mouse at 5 mg/kg, po by LC-MS/MS analysis; assay type: ADME, organism-based; settings: in vivo
[5] = Cmax in rat at 5 mg/kg, po by LC-MS/MS analysis; assay type: ADME, organism-based; settings: in vivo
Mus musculus = assay: Reduction in blood glucose level in human GLP-1R knock-in mouse at 1 mg/kg, po pretreated for 1 to 4 hrs followed by glucose addition and measured upto 120 mins by glucose meter; assay type: functional, organism-based; settings: time 180-360 min
[6] = AUC in rat at 2 mg/kg, iv by LC-MS/MS analysis; assay type: ADME, organism-based; settings: in vivo
[7] = Metabolic stability in human liver microsomes assessed as half life at […] incubated upto 45 mins in presence of NADPH by LC-MS/MS analysis; assay type: ADME, Microsome
[8] = Apparent volume of distribution in rat at 2 mg/kg, iv by LC-MS/MS analysis; assay type: ADME, organism-based; settings: in vivo, read-out: Vz
[9] = Apparent volume of distribution in ICR mouse at 2 mg/kg, iv by LC-MS/MS analysis; assay type: ADME, organism-based; settings: in vivo, read-out: Vz
[10] = Cmax in cynomolgus monkey at 2 mg/kg, iv; assay type: ADME, organism-based, Macaca fascicularis; settings: in vivo
[11] = Oral clearance in ICR mouse at 5 mg/kg, po by LC-MS/MS analysis; assay type: ADME, organism-based; settings: in vivo
[12] = AUC in rat at 5 mg/kg, po by LC-MS/MS analysis; assay type: ADME, organism-based; settings: in vivo
[13] = Permeability across apical to basolateral in human Caco-2 cells at 10 uM incubated for 120 mins by LC-MS/MS analysis; assay type: ADME, cell-based; settings: read-out: permeability
[14] = Half-life in ICR mouse at 2 mg/kg, iv by LC-MS/MS analysis; assay type: ADME, organism-based; settings: in vivo
[15] = AUC in ICR mouse at 2 mg/kg, iv by LC-MS/MS analysis; assay type: ADME, organism-based; settings: in vivo
[16] = Tmax in cynomolgus monkey at 2 mg/kg, iv; assay type: ADME, organism-based, Macaca fascicularis; settings: in vivo
Cytochrome P450 1A2 = molecular target: T1, Cytochrome P450 1A2 (Homo sapiens, UniProt P05177); assay: Inhibition of CYP1A2 in human liver microsomes using phenacetin as substrate preincubated for 5 mins followed by NADPH addition and measured after 10 mins by LC-MS/MS analysis; assay type: ADME, Microsome
T1 sequence (P05177 whole entry): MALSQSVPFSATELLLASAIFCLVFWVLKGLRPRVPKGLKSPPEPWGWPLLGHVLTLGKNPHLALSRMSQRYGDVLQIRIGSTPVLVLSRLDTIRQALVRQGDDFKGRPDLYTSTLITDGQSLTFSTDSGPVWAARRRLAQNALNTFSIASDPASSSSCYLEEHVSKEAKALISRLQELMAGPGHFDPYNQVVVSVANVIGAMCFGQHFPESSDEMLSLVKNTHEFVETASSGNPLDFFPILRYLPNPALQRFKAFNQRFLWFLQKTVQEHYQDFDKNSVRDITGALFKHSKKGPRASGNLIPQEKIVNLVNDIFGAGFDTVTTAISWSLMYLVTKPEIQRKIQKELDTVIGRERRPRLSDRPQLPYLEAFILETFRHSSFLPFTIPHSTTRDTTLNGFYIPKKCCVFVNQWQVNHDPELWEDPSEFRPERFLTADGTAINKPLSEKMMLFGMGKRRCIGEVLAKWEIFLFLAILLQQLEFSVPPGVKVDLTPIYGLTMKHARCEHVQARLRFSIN

[17] = Permeability across basolateral to apical side in human Caco-2 cells at 10 uM incubated for 120 mins by LC-MS/MS analysis; assay type: ADME, cell-based; settings: read-out: permeability
[18] = Oral bioavailability in cynomolgus monkey at 20 mg/kg; assay type: ADME, organism-based, Macaca fascicularis; settings: in vivo
[19] = Half-life in rat at 5 mg/kg, po by LC-MS/MS analysis; assay type: ADME, organism-based; settings: in vivo
[20] = Cmax in ICR mouse at 5 mg/kg, po by LC-MS/MS analysis; assay type: ADME, organism-based; settings: in vivo
Cytochrome P450 2C8 = molecular target: T2, Cytochrome P450 2C8 (Homo sapiens, UniProt P10632); assay: Inhibition of CYP2C8 in human liver microsomes using paclitaxel as substrate preincubated for 5 mins followed by NADPH addition and measured after 20 mins by LC-MS/MS analysis; assay type: ADME, Microsome
T2 sequence (P10632 whole entry): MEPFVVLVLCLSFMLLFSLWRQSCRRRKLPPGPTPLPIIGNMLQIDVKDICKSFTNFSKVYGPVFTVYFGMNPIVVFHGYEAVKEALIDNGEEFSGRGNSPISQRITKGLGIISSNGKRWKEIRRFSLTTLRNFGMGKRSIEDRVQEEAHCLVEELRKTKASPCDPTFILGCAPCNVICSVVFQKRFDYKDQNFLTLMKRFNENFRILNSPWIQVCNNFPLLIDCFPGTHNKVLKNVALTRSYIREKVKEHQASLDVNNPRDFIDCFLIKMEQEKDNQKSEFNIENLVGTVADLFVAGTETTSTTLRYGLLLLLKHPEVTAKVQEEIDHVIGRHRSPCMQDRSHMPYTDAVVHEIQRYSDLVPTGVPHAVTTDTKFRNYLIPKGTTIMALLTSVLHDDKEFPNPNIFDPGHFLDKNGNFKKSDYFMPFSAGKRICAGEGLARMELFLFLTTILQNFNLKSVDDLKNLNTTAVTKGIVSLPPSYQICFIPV

SMILES	IC50 (Cytochrome P450 3A4) [µM]	IC50 (Cytochrome P450 2C19) [µM]	CL/F [1] [mL/min/kg]	AUC [2] [ng·h/mL]	bioavailability [3] [%]	IC50 (Cytochrome P450 2D6) [µM]	half-life [4] [min]	Cmax [5] [ng/mL]	Activity (Mus musculus)	AUC [6] [ng·h/mL]	half-life [7] [min]	Vd [8] [L/kg]	Vd [9] [L/kg]	Cmax [10] [nM]	CL/F [11] [mL/min/kg]	AUC [12] [ng·h/mL]	Papp A→B at 2 h, 10 µM [13] [×10⁻⁶ cm/s]	half-life [14] [min]	AUC [15] [ng·h/mL]	Tmax [16] [h]	further results
N#Cc1ccc(COc2cccc(C3CCN(Cc4nc5ccc(C(=O)O)cc5n4C[C@@H]4CCO4)CC3)n2)c(F)c1 [DANUGLIPRON]	> 10	> 10	554	2280	54.2	> 10	97.2	110	Active	520	112	1.98	4.26	670	36.5	170	3.93	148	1670	1.21	IC50 (Cytochrome P450 1A2): > 10 µM; Papp B→A at 2 h, 10 µM [17]: 21.7 ×10⁻⁶ cm/s; bioavailability [18]: 3.41%; half-life [19]: 79.8 min; Cmax [20]: 2840 ng/mL; IC50 (Cytochrome P450 2C8): 1250 nM
O=C(O)c1ccc2nc(CN3CCC(c4cccc(OCc5ccc(C6COC6)cc5F)n4)CC3)n(C[C@@H]3CCO3)c2c1	> 10	> 10	52.8	3000	53.1	> 10	232	190	Active	530	130	1.37	12.2	207	41.8	180	3.14	422	1670	1.39	IC50 (Cytochrome P450 1A2): > 10 µM; Papp B→A at 2 h, 10 µM [17]: 16.5 ×10⁻⁶ cm/s; bioavailability [18]: 32.8%; half-life [19]: 50.4 min; Cmax [20]: 2090 ng/mL; IC50 (Cytochrome P450 2C8): 220 nM
